Legend:
[1] = molecular target: T1, hM2 receptor (CHO-K1 cells) (Homo sapiens, UniProt P08172); test: Blockade of agonist-mediated inhibition of cAMP accumulation; assay type: cell-based; details: CHO-K1 cells expressing the hM2 receptor; read-out: Ki value for blockade of oxotremorine-inhibition of forskolin-mediated cAMP accumulation
T1 construct: expressed in transfected cells; host or cells: CHO-K1 cells
T1 sequence (P08172 1-466): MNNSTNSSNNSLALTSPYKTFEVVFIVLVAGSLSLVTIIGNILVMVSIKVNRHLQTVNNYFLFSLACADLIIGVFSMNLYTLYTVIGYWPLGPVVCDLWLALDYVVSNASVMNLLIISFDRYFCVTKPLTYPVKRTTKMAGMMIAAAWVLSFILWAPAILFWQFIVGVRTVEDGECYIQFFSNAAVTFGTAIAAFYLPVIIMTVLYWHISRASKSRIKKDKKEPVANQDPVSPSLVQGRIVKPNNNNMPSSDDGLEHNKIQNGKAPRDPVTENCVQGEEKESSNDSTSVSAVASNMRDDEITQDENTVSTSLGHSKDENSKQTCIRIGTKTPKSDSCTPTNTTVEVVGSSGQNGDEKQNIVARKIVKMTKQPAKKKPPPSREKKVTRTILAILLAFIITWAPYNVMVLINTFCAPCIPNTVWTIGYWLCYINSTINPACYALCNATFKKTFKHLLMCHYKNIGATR
Procedure: A. Blockade of Agonist-Mediated Inhibition of cAMP Accumulation
In this assay, the functional potency of a test compound was determined by measuring the ability of the test compound to block oxotremorine-inhibition of forskolin-mediated cAMP accumulation in CHO-K1 cells expressing the hM2 receptor.
cAMP assays were performed in a radioimmunoassay format using the Flashplate Adenylyl Cyclase Activation Assay System with ^125I-cAMP (NEN SMP004B, PerkinElmer Life Sciences Inc., Boston, Mass.), according to the manufacturer's instructions.
Cells were rinsed once with dPBS and lifted with Trypsin-EDTA solution (0.05% trypsin/0.53 mM EDTA) as described in the Cell Culture and Membrane Preparation section above. […] The cell pellet was then re-suspended in 10 mL dPBS, and the cells were counted with a Coulter Z1 Dual Particle Counter (Beckman Coulter, Fullerton, Calif.). […]
Reactions were incubated for 10 minutes at 37° C. and stopped by addition of 100 μL ice-cold detection buffer. Plates were sealed, incubated overnight at room temperature and counted the next morning on a PerkinElmer TopCount liquid scintillation counter (PerkinElmer Inc., Wellesley, Mass.). The amount of cAMP produced (pmol/well) was calculated based on the counts observed for the samples and cAMP standards, as described in the manufacturer's user manual. […]

[2] = test system: MCh-induced depressor responses; test: Methacholine-induced depressor responses in conscious guinea pigs; assay type: in vivo; details: guinea pig, inhalation
Source text: Methacholine-Induced Depressor Responses in Conscious Guinea Pigs
Healthy, adult, male Sprague-Dawley guinea pigs (Harlan, Indianapolis, Ind.), weighing between 200 and 300 g were used in these studies. Under isoflurane anesthesia (to effect), animals were instrumented with common carotid artery and jugular vein catheters (PE-50 tubing). The catheters were exteriorized utilizing a subcutaneous tunnel to the subscapular area. All surgical incisions were sutured with 4-0 Ethicon Silk and the catheters locked with heparin (1000 units/mL). Each animal was administered saline (3 mL, SC) at the end of surgery as well as buprenorphine (0.05 mg/kg, IM). Animals were allowed to recover on a heating pad before being returned to their holding rooms.
Approximately 18 to 20 hours following surgery, the animals were weighed and the carotid artery catheter on each animal was connected to a transducer for recording arterial pressure. Arterial pressure and heart rate was recorded using a Biopac MP-100 Acquisition System. Animals were allowed to acclimate and stabilize for a period of 20 minutes.
Each animal was challenged with MCh (0.3 mg/kg, IV) administered through the jugular venous line and the cardiovascular response was monitored for 10 minutes. […] At 1.5 and 24 h post-dosing, the animals were re-challenged with MCh (0.3 mg/kg, IV) and the hemodynamic response was determined. […]

`CNCC(=O)NCCCCCN1CC[C@@H](C(C(N)=O)(c2ccccc2)c2ccccc2)C1` [Example 1] was tested, and the Ki [1] was less than 100 nM and the “apparent lung-selectivity index (ratio of anti-depressor ID50 to bronchoprotective ID50)” value [2] was “greater than 5”.

From US7208515B2, “Diphenylmethyl compounds useful as muscarinic receptor antagonists” (Theravance, Inc., priority 2004, dated 2007)
